Assays:
[1] = test system: Human ES cells (KhES-1) aggregates; experiment: Cortical hem formation in human ES cell aggregates with Wnt signal enhancer, immunohistostaining on day 42; type: cell-based; conditions: 3 μM CHIR99021 alone, day 18 to day 42
Experimental: Human ES cells (KhES-1; a fluorescence protein gene Venus is knocked-in a telencephalon specific gene Foxg1) were dispersed to single cells by a trypsin treatment, and according to the SFEBq method (Nakano et al, Cell Stem Cell, 2012), aggregates were formed and subjected to suspension aggregate culture at 37° C. in the presence of 5% CO2 for differentiation induction. The dispersed 9000 human ES cells were seeded in each well of a V bottom 96 well plate applied with a low cell adsorptive surface coating, and a growth factor-free G-MEM medium (Gibco/Invitrogen) added with 20% KSR (Knockout Serum Replacement), 0.1 mM non-essential amino acid solution (Gibco/Invitrogen), 1 mM sodium pyruvate solution (Sigma), and 0.1 mM 2-mercaptoethanol was used as the medium for differentiation induction. […] The aggregate was analyzed on day 1 and day 34 from the start of differentiation induction, and analyzed by immunohistostaining on day 42. […] The culture medium used for the culture from day 18 to day 42 was DMEM/F12 medium (Gibco/Invitrogen) added with 1% N2 supplement (Gibco/Invitrogen), 1% lipid concentrate (Chemically defined lipid concentrate, Gibco/Invitrogen), 10% FBS, 5 μg/ml heparin, 3 μM GSK-3β inhibitor CHIR99021 (Wnt signal enhancer) and the aggregates were analyzed by immunohistostaining on day 42.

[2] = test system: hESC-derived cortical neuroepithelium; experiment: Notch signal inhibition in hESC-derived cortical neuroepithelium, neural stem cell/progenitor and neuron markers; type: cell-based, human; conditions: 10 μM DAPT, days 70-77
Source text: (A-C) Immunostaining of Pax6 and Sox2 in apical and basal (SVZ) neural stem cells/progenitors within the hESC-derived cortical neuroepithelium on day 91. The majority of Sox2 positive cells express Pax6 (C). (D-F) Effects of Notch signal inhibition on the expression of neural stem cells/progenitor and neuron markers in cortical neuroepithelium. […] An increase of cortical neuroepithelium thickness also observed after the treatment (F). ***P<0.001, Student t tests between with DAPT (n=6) and without DAPT (n=5) treatment. (G) Schematic of oRG neural stem cells/progenitors in the human fetal outer SVZ. (H and H′) Phospho-vimentin+ neural stem cells/progenitors in the SVZ expressed Sox2. (I) Phospho-vimentin+ neural stem cells/progenitors in the SVZ with a long […] process extending toward the pial surface. (J) Phospho-vimentin+ SVZ neural stem cells/progenitors with a basal process carried a pericentin+ centrosome in the neurons. During mitosis, two pericentin+ centrioles were found for dividing cells. […] (Scale bars, 100 μm in A-E; 25 μm in H-K.)
Cortical neuroepithelium induced from hESCs were subjected to culture under the following conditions. On day 18, the cell aggregates were transferred to a 9-cm Petri dish (non-cell adhesive surface coat) and further cultured in DMEM/F12 medium (Gibco/Invitrogen) supplemented with 1% N2 supplement (Gibco/Invitrogen), 1% lipid concentrate (Chemically Defined Lipid Concentrate, Gibco/Invitrogen), 0.25 mg/mL Fungizone, 100 U/mL penicillin, and 100 μg/mL streptomycin at 37° C. in the presence of 5% CO2 and 40% O2. From day 35, 10% FBS, 5 μg/mL heparin, and 1% Matrigel growth factor-reduced (BD Biosciences) were also added to the medium. To prevent cell death in the central portions of cell aggregates, the aggregates were cut into half-size with fine forceps under a dissecting microscope every 2 wk after day 35 and were cultured using a lumox culture dish (SARSTEDT; O2 penetrating) after day 56. From day 70, the concentration of Matrigel was increased (final 2%) and B27 supplement (Gibco/Invitrogen) was added to the medium.

[3] = test system: Human ES cells (KhES-1) aggregates; experiment: Induction of basal ganglia progenitor tissue (LGE/MGE) in human ES cell aggregates by Shh signal agonist, immunohistostaining on day 35; type: cell-based
Experimental: Human ES cells (KhES-1; a fluorescence protein gene Venus is knocked-in a telencephalon specific gene Foxg1) were dispersed to single cells by a trypsin treatment, and according to the SFEBq method (Nakano et al, Cell Stem Cell, 2012), aggregates were formed and subjected to suspension aggregate culture at 37° C. in the presence of 5% CO2 for differentiation induction. The dispersed 9000 human ES cells were seeded in each well of a V bottom 96 well plate applied with a low cell adsorptive surface coating, and a growth factor-free G-MEM medium (Gibco/Invitrogen) added with 20% KSR (Knockout Serum Replacement), 0.1 mM non-essential amino acid solution (Gibco/Invitrogen), 1 mM sodium pyruvate solution (Sigma), and 0.1 mM 2-mercaptoethanol was used as the medium for differentiation induction. To suppress dispersion-induced cell death, 20 μM of a ROCK inhibitor Y-27632 was added for the first 3 days of differentiation induction, and the concentration thereof was reduced to half for the next 3 days. From day 0 to day 18 after the start of the differentiation induction, Wnt signal inhibitor IWR-1-end (3 μM) and TGFβ signal inhibitor SB431542 (5 μM) were added and allowed to react. On day 18 from the start of differentiation induction, these aggregates were transferred to a 9 cm petri dish applied with low cell-adhesive surface coating, and suspension culture was performed at 37° C., in the presence of 5% CO2, 40% O2. From day 18 to day 35, DMEM/F12 medium (Gibco/Invitrogen) added with 1% N2 supplement (Gibco/Invitrogen), and 1% lipid concentrate (Chemically defined lipid concentrate, Gibco/Invitrogen) was used. From day 35, the medium further added with 10% FBS, 5 μg/ml heparin, and 1% Matrigel growth factor reduced (BD Bioscience) was used. The aggregate was analyzed on day 1 and day 34 from the start of differentiation induction, and analyzed by immunohistostaining on day 42.
Up to day 35 of differentiation induction, cells were cultured under culture conditions similar to those of Example 1. That is, human ES cell aggregates were cultured in a V bottom 96 well plate up to 18 days after differentiation induction, suspended aggregates were transferred to a non-cell adhesive petri dish (diameter […]), and suspension culture was performed at 37° C. in the presence of 5% CO2, 40% O2 from day 18 to day 35 of differentiation induction. However, Sonic hedgehog (Shh) signal agonist SAG was added to the culture medium of Example 1 at a final concentration of 30 nM or 500 nM only in the period of from day 15 to day 21 and allowed to react. The aggregate was analyzed by immunohistostaining on day 35.
Up to day 35 of differentiation induction, cells were cultured under culture conditions similar to those of Example 2. That is, human ES cell aggregates were cultured in a V bottom 96 well plate up to 18 days after differentiation induction, suspended aggregates were transferred to a non-cell adhesive petri dish (diameter 9 cm), and suspension culture was performed at 37° C. in the presence of 5% CO2, 40% O2, from day 18 to day 35 of differentiation induction. However, Shh signal agonist SAG was added to the culture medium at a concentration of 30 nM only in the period of from day 15 to day 21 of differentiation induction. The aggregate was analyzed by immunohistostaining on day 35.
Ventralization of cortical neuroepithelium was performed by adding hedgehog agonist SAG (30 nM or 500 nM) during culture days 15-21. The cell aggregates were fixed on culture day 35.

[4] = test system: hESC-derived cortical neuroepithelium; experiment: Rolling morphogenesis of hESC-derived cortical neuroepithelium with ROCK inhibitor; type: cell-based, human; conditions: P<0.001 vs control, Fisher's exact test, dihydrochloride
Source text: (A-I) Asymmetric progression of rounding morphogenesis of hESC-derived cortical neuroepithelium. Arrows indicate boundary of a cortical neuroepithelium domain in A and rolling epithelium in B-D. Arrowheads indicate rolling epithelium in E. Arrows indicate rounding movements of the neuroepithelium in F-I. (J-L) Effect of the ROCK inhibitor Y-27632 on the rolling of cortical neuroepithelium. […] Treatment group, n=187 neuroepithelium domains; control group, n=130. (M and N) The rolling shape was preferentially observed on the side with strong expression of Otx2 and Coup-TF1 (dorsal and caudal markers). (O-Q) Adjacent formation of neuroepithelium structures of cortex (Pax6+) and LGE (Gsh2+; with GAD65^+ GABAergic neurons underneath) on day 35. The cortical side contacting the LGE domain was opposite to the side with strong rolling (arrow). (R) Interkinetic nuclear migration in the hESC-derived cortical neuroepithelium on day 24 (two-photon imaging). Visualized with partial mixing of pax6::venus reporter hESCs with nonlabeled hESCs. Two daughter cells with both apical and basal processes were generated from an apically dividing progenitor. (Scale bars, 200 μm in A; 100 μm in B-H and J-N; 200 μm in O-Q.) Nuclear counter staining (blue), DAPI.

[5] = 30 nM SAG, day 15 to day 21, analysed day 35

## Cc1cnc(-c2cnc(NCCNc3ccc(C#N)cn3)nc2-c2ccc(Cl)cc2Cl)[nH]1 [CHIR99021, 6-[[2-[[4-(2,4-Dichlorophenyl)-5-(5-methyl-1H-imidazol-2-yl)-2-pyrimidinyl]amino]ethyl]amino]-3-pyridinecarbonitrile]
[1]
  aggregates with selective formation of cortical hem: not less than 80%

## C[C@H](NC(=O)Cc1cc(F)cc(F)c1)C(=O)N[C@H](C(=O)OC(C)(C)C)c1ccccc1 [DAPT]
[2]
  Satb2+ neurons: increased
  Sox2+ Tbr2− cells after the treatment: rarely remained
  Sox2− Tbr2+ intermediate neural stem cells/progenitors: increased
[2]; P<0.001
  cortical neuroepithelium thickness: increase

## CNC1CCC(N(Cc2cccc(-c3ccncc3)c2)C(=O)c2sc3ccccc3c2Cl)CC1 (stereo not shown) [SAG]
[3]; 30 nM SAG for days 15-21
  Gsh2 (LGE marker) expression in foxg1::Venus-expressing neural epithelium: a substantial portion of foxg1::Venus-expressing neural epithelium expressed Gsh2
[3]; [5]
  aggregates with Gsh2 positive LGE neuroepithelium: not less than 70%
  aggregates with continuous self-formation of cerebral cortex and basal ganglion in one aggregate: not less than 50%
[3]; 30 nM SAG, days 15-21
  percentage of Gsh2+ neuroepithelium in Foxg1+ telencephalic neuroepithelium: increased
  percentage of Pax6+ neuroepithelium in Foxg1+ telencephalic neuroepithelium: partially suppressed
[3]; 500 nM SAG, day 15 to day 21, analysed day 35
  aggregates with Foxg1::venus positive and Nkx2.1 positive MGE neuroepithelium: not less than 80%
[3]; 500 nM SAG, days 15-21
  Nkx2.1+ neuroepithelium as share of Foxg1+ telencephalic NE: 40-50%
  expression of both Pax6 and Gsh2: efficiently suppressed
[3]; high concentrations of SAG (500 nM), days 15-21
  MGE marker Nkx2.1 expression: induced the MGE marker Nkx2.1 at the cost of Pax6 and Gsh2 expression

## C[C@@H](N)[C@H]1CC[C@H](C(=O)Nc2ccncc2)CC1.Cl.Cl [Y-27632, (+)-(R)-trans-4-(1-aminoethyl)-N-(4-pyridyl)cyclohexanecarboxamide dihydrochloride]
[4]
  rolling morphogenesis of cortical neuroepithelium: Attenuation of rolling morphogenesis
[4]; listed as ROCK inhibitor
  rolling morphogenesis of cortical neuroepithelium: attenuated

Source: patent publication US11198850B2, “Method for manufacturing telencephalon or progenitor tissue thereof” (RIKEN, priority 2013, dated 2021)
